According to ChEMBL document CHEMBL1129178, “Thiol inhibitors of endothelin-converting enzyme” (Bioorg Med Chem Lett, 1996):

Assays:
[1] = target: T1, Endothelin-converting enzyme 1 (Rattus norvegicus, UniProt P42893); assay: In vitro inhibition of Endothelin-converting enzyme 1 from rat lungs.
T1 sequence (P42893 whole entry): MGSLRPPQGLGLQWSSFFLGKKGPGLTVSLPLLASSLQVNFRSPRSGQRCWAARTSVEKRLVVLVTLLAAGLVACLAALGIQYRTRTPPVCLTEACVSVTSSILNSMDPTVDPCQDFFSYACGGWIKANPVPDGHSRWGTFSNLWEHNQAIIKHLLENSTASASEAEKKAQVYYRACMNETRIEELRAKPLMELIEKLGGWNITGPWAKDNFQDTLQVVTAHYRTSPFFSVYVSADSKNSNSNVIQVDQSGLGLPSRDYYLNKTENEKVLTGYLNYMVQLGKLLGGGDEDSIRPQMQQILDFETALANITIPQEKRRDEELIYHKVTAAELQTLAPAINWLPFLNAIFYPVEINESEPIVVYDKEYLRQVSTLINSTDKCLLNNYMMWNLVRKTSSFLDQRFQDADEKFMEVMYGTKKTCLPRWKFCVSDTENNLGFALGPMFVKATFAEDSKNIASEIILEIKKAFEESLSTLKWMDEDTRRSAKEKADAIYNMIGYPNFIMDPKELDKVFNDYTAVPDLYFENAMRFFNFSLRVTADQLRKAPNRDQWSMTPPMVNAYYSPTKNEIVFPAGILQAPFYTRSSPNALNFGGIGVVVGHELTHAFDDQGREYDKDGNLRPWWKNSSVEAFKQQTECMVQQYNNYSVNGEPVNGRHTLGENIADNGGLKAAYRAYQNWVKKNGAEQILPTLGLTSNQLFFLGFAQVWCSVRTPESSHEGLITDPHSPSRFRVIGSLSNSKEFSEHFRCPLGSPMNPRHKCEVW

[2] = target: T2, Endothelin-converting enzyme 1 (Rattus norvegicus) (UniProt P42893); assay: In vitro inhibition of cleavage of [3H]propionyl-big ET-1(19-35) by Endothelin-converting enzyme 1 from rat lungs at 10000 nM
T2 sequence (whole entry): T1 sequence (P42893 whole entry)

| IC50 [1] [nM] | inhibition [2] [%] | Structure (SMILES) |
| --- | --- | --- |
| 1200 |  | O=C(N[C@@H](Cc1ccccc1)C(=O)O)[C@@H](CS)Cc1ccccc1 |
| 40 |  | O=C(N[C@@H](Cc1c[nH]c2ccccc12)C(=O)O)C(CS)Cc1cccc(-c2ccccc2)c1 (stereo partly specified) |
| 340 |  | O=C(N[C@@H](Cc1c[nH]c2ccccc12)C(=O)O)C(CS)Cc1ccccc1 (stereo partly specified) |
| 2800 |  | O=C(N[C@@H](Cc1ccc(O)cc1)C(=O)O)[C@@H](CS)Cc1ccccc1 |
| 800 |  | O=C(N[C@@H](Cc1c[nH]c2ccccc12)C(=O)O)C(CS)Cc1ccc(OCc2ccccc2)cc1 (stereo partly specified) |
| 400 |  | O=C(N[C@@H](Cc1c[nH]c2ccccc12)C(=O)O)[C@H](S)Cc1ccccc1 |
| 700 |  | O=C(N[C@@H](Cc1ccc(OCc2ccccc2)cc1)C(=O)O)[C@@H](CS)Cc1ccccc1 |
| 500 |  | O=C(N[C@@H](Cc1c[nH]c2ccccc12)C(=O)O)[C@H](CS)Cc1ccccc1 |
| 3500 |  | COC(=O)[C@H](Cc1c[nH]c2ccccc12)NC(=O)[C@H](CS)Cc1ccccc1 |
| 25 |  | O=C(N[C@@H](Cc1c[nH]c2ccccc12)C(=O)O)C(CS)Cc1ccc(Br)cc1 (stereo partly specified) |
| 400 |  | O=C(N[C@@H](Cc1c[nH]c2ccccc12)C(=O)O)C(CS)Cc1cc2c(cc1Cl)OCO2 (stereo partly specified) |
| 40 |  | O=C(N[C@@H](Cc1c[nH]c2ccccc12)C(=O)O)C(CS)Cc1ccc(-c2ccccc2)cc1 (stereo partly specified) |
| 150 |  | O=C(N[C@@H](Cc1ccc(-c2ccccc2)cc1)C(=O)O)[C@@H](CS)Cc1ccccc1 |
| 55 |  | O=C(N[C@@H](Cc1ccc(-c2cccs2)cc1)C(=O)O)[C@@H](CS)Cc1ccccc1 |
| 80 |  | O=C(N[C@@H](Cc1ccc(-c2cccs2)cc1)C(=O)O)C(CS)Cc1cccc(Br)c1 (stereo partly specified) |
|  | 65 | O=C(O)[C@H](Cc1c[nH]c2ccccc12)NC(=O)[C@@H](S)Cc1ccccc1 |
| 2200 |  | COC(=O)[C@H](Cc1c[nH]c2ccccc12)NC(=O)[C@H](S)Cc1ccccc1 |
| 300 |  | O=C(N[C@@H](Cc1ccc(-c2ccc3ccccc3c2)cc1)C(=O)O)[C@@H](CS)Cc1ccccc1 |
| 1800 |  | COC(=O)[C@H](Cc1c[nH]c2ccccc12)NC(=O)[C@@H](CS)Cc1ccccc1 |
| 800 |  | COc1ccc(-c2ccc(C[C@H](NC(=O)[C@@H](CS)Cc3ccccc3)C(=O)O)cc2)cc1 |
| 180 |  | O=C(N[C@@H](Cc1c[nH]c2ccccc12)C(=O)O)[C@@H](CS)Cc1ccccc1 |
